Results: paper PMC7733455, “A novel multistage antiplasmodial inhibitor targeting Plasmodium falciparum histone deacetylase 1” (Cell Discovery, 2020)

What was measured:
P. falciparum 3D7 = experiment: 3-day SYBR Green I growth inhibition assay (GIA), strain 3D7; format: cell-based, Plasmodium falciparum; details: 3-day SYBR Green I GIA, drug-sensitive strain 3D7; read-out: Antiplasmodial activity EC50, 3D7
Protocol: (§1) A 3-day SYBR Green I inhibition EC50 assay was performed as described previously. Briefly, highly synchronized ring-stage parasites by 5% sorbitol (1% parasitemia and 2% hematocrit) were incubated in a 96-well plate with compounds in a total volume of 200 μL. […] The parasites were cultured for 72 h before SYBR Green I staining as described above. The EC50 was calculated by GraphPad Prism. DHA was used as a positive control, and the final concentration of DMSO was 1%.

P. falciparum Dd2 = experiment: 3-day SYBR Green I GIA, multidrug-resistant strain Dd2; format: cell-based, Plasmodium falciparum; details: 3-day SYBR Green I GIA, multidrug-resistant strain Dd2; read-out: Antiplasmodial activity EC50, Dd2
Protocol: as §1

HepG2 cells = experiment: In vitro cytotoxicity analysis (CellTiter-Glo), HepG2; details: for EC50: read-out: Cytotoxicity EC50, HepG2, 72 h, CellTiter-Glo
Protocol: (§2) In all, 1% DMSO was used as a negative control. The inhibition of each drug was normalized to that of the DMSO control. EC50 was calculated by GraphPad Prism. Three independent assays with two technical replicates each time were conducted in this experiment.

293T cells = experiment: In vitro cytotoxicity analysis (CellTiter-Glo), 293T; details: for EC50: read-out: Cytotoxicity EC50, 293T, 72 h, CellTiter-Glo
Protocol: as §2

| Structure (SMILES) | EC50 (P. falciparum 3D7) [nM] | EC50 (P. falciparum Dd2) [nM] | Selectivity index for HepG2 (EC50 HepG2/EC50 3D7) (HepG2 cells) | EC50 (HepG2 cells) [nM] | Selectivity index for 293T (EC50 293T/EC50 3D7) (293T cells) | EC50 (293T cells) [nM] |
| --- | --- | --- | --- | --- | --- | --- |
| Cl.Cn1cc(CN2CCN(c3ncc(C(=O)NO)cn3)CC2)c2ccccc21 [JX21003] | 10.9 ± 0.8 | 15.3 ± 0.4 | 4 | 44 ± 7 | 4 | 47 ± 21 |
| Cl.Cn1cc(CNC2CCN(c3ncc(C(=O)NO)cn3)CC2)c2ccccc21 [JX21004] | 32.9 ± 0.9 | 61 ± 0.4 | 9 | 294 ± 57 | 16 | 519 ± 112 |
| CN(Cc1cn(C)c2ccccc12)C1CCN(c2ncc(C(=O)NO)cn2)CC1.Cl [JX21005] | 73.6 ± 3.5 | 108 ± 5.6 | 9 | 643 ± 36 | 27 | 1980 ± 407 |
| Cl.Cn1cc(CN2CCC(CNc3ncc(C(=O)NO)cn3)CC2)c2ccccc21 [JX21008] | 13.1 ± 0.6 | 23.6 ± 0.4 | 52 | 688 ± 10 | 19 | 253 ± 89 |
| Cl.Cn1cc(CN2CCC3(CC2)CCN(c2ncc(C(=O)NO)cn2)CC3)c2ccccc21 [JX21010] | 23.4 ± 2.4 | 31.1 ± 4.6 | 39 | 904 ± 18 | 94 | 2210 ± 226 |
| Cl.Cn1cc(CN2CCC3(CC2)CN(c2ncc(C(=O)NO)cn2)C3)c2ccccc21 [JX21013] | 79.2 ± 2.4 | 44 ± 10 | > 126 | > 10000 | > 126 | > 10000 |
| Cl.Cn1cc(CN2CCC3(CCCN3c3ncc(C(=O)NO)cn3)CC2)c2ccccc21 [JX21019] | 45.2 ± 1.2 | 38.7 ± 0.6 | 19 | 875 ± 70 | 22 | 1000 ± 208 |
| Cl.Cn1cc(CNC2CCC(Nc3ncc(C(=O)NO)cn3)CC2)c2ccccc21 (stereo not shown) [JX21022] | 151 ± 2.7 | 125 ± 4.5 | > 66 | > 10000 | > 66 | > 10000 |
| Cl.Cn1cc(CN2CCC3(CCN(c4ncc(C(=O)NO)cn4)C3)C2)c2ccc(Cl)cc21 (stereo not shown) [JX21102] | 4.2 ± 0.7 | 2.4 ± 0.2 | 123 | 514 ± 22 |  | 1670 ± 110 |
| Cl.O=C(NO)c1cnc(N2CCC3(CCN(Cc4ccccc4)C3)C2)nc1 (stereo not shown) [JX21105] | 17.8 ± 0.5 | 28.6 ± 1.8 | 68 | 1200 ± 68 | 101 | 1790 ± 37 |
| Cl.Cn1cc(CN2CCC3(CCN(c4ncc(C(=O)NO)cn4)C3)C2)c2ccc(F)cc21 (stereo not shown) [JX21106] | 2 ± 0.9 | 3.6 ± 0.08 | 88 | 178 ± 4 | 198 | 402 ± 96 |
| Cl.O=C(NO)c1cnc(N2CCC3(CCN(Cc4cccs4)C3)C2)nc1 (stereo not shown) [JX21110] | 49.7 ± 1.1 | 35.4 ± 1.3 | 34 | 1690 ± 163 | 91 | 4540 ± 323 |
| Cl.O=C(NO)c1cnc(N2CCC3(CCN(Cc4ccco4)C3)C2)nc1 (stereo not shown) [JX21111] | 45.5 ± 3.3 | 34 ± 2.5 | 24 | 1100 ± 18 | 50 | 2260 ± 286 |
| Cl.O=C(NO)c1cnc(N2CCC3(CCN(CC4CCCCC4)C3)C2)nc1 (stereo not shown) [JX21112] | 40.4 ± 4.1 | 28.3 ± 3.8 | 62 | 2490 ± 520 | 15 | 607 ± 42 |
| Cl.O=C(NO)c1cnc(N2CCC3(CCN(Cc4coc5ccccc45)C3)C2)nc1 (stereo not shown) [JX21113] | 67.5 ± 5.3 | 112 ± 13.1 | > 148 | > 10000 | 45 | 3020 ± 67 |
| Cl.O=C(NO)c1cnc(N2CCC3(CCN(Cc4ccnc5ccccc45)C3)C2)nc1 (stereo not shown) [JX21114] | 45.9 ± 11.8 | 76.2 ± 9.9 | 86 | 3930 ± 537 | 41 | 1859 ± 12 |
| Cl.O=C(NO)c1cnc(N2CCC3(CCN(Cc4ccc(-c5ccccc5)cc4)C3)C2)nc1 (stereo not shown) [JX21116] | 21.7 ± 0.2 | 33.9 ± 0.3 | 137 | 2960 ± 152 | 111 | 2410 ± 118 |
| Cl.O=C(NO)c1cnc(N2CCC3(CCN(Cc4cccnc4)C3)C2)nc1 (stereo not shown) [JX21119] | 53.3 ± 0.5 | 39 ± 4 | 120 | 6420 ± 540 | 131 | 6998 ± 57 |
| Cl.O=C(NO)c1cnc(N2CCC3(CCN(Cc4ccsc4)C3)C2)nc1 (stereo not shown) [JX21120] | 18.6 ± 3.9 | 23.2 ± 1.2 | 114 | 2120 ± 165 | 211 | 3930 ± 374 |
| Cl.O=C(NO)c1cnc(N2CCC3(CCN(CC4CCCC4)C3)C2)nc1 (stereo not shown) [JX21121] | 92.5 ± 11.3 | 61.6 ± 4.8 | > 108 | > 10000 | > 108 | > 10000 |
| Cl.O=C(NO)c1cnc(N2CCC3(CCN(Cc4cnc5ccccn45)C3)C2)nc1 (stereo not shown) [JX21122] | 72.9 ± 10 | 74.4 ± 27.4 | > 137 | > 10000 | > 137 | > 10000 |
| Cl.O=C(NO)c1cnc(N2CCC3(CCN(Cc4cccc5ccccc45)C3)C2)nc1 (stereo not shown) [JX21125] | 6 ± 0.4 | 4.9 ± 0.7 | 136 | 815 ± 48 | 207 | 1240 ± 185 |
| Cl.O=C(NO)c1cnc(N2CCC3(CCNC3)C2)nc1 (stereo not shown) [JX21131] | 40.4 ± 9.2 | 20.7 ± 2.4 | > 248 | > 10000 | > 248 | > 10000 |
| Cl.O=C(NO)c1cnc(N2CCC3(CCN(Cc4ccc5ncccc5c4)C3)C2)nc1 (stereo not shown) [JX21137] | 7 ± 0.4 | 9.6 ± 0.5 | 179 | 1250 ± 190 | 254 | 1770 ± 28 |
| Cl.O=C(NO)c1cnc(N2CCC3(CCN(Cc4ccc5ccccc5n4)C3)C2)nc1 (stereo not shown) [JX21143] | 7.9 ± 1 | 3.1 ± 0.3 | 49 | 388 ± 58 | 368 | 2910 ± 655 |
| O=C(NO)c1cnc(N2CCN(S(=O)(=O)c3ccc4ccccc4c3)CC2)nc1 [R306465, reference compound] | 23 |  | 38 | 877 | 287 | 6600 |
